How the values were obtained:
[1] = biological target: T1, Abcg2a (Danio rerio, UniProt Q2Q447); assay: flow cytometry efflux assay; assay type: cell-based; conditions: 5 µM substrate, 37 °C, with and without inhibitor
T1 construct: homodimer
T1 sequence (Q2Q447 1-643): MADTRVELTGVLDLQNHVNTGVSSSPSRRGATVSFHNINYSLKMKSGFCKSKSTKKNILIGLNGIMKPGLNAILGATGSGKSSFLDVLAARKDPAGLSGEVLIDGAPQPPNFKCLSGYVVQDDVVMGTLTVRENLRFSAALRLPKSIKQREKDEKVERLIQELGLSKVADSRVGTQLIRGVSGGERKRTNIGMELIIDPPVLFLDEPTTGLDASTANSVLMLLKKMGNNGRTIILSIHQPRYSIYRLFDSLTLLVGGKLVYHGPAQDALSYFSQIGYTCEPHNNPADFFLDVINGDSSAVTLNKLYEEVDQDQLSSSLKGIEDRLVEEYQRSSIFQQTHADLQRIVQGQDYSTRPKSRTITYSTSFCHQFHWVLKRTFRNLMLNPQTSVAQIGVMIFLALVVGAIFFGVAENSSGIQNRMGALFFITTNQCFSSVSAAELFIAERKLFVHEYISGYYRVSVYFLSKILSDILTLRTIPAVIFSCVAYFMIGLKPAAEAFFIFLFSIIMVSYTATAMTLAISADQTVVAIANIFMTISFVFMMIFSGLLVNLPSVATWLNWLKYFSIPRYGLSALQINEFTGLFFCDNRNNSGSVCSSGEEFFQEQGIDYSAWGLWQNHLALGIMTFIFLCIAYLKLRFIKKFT

[2] = biological target: T2, Abcg2b (Danio rerio, UniProt Q2Q446); assay: flow cytometry efflux assay; assay type: cell-based; conditions: 5 µM substrate, 37 °C, with and without inhibitor
T2 construct: homodimer
T2 sequence (Q2Q446 1-618): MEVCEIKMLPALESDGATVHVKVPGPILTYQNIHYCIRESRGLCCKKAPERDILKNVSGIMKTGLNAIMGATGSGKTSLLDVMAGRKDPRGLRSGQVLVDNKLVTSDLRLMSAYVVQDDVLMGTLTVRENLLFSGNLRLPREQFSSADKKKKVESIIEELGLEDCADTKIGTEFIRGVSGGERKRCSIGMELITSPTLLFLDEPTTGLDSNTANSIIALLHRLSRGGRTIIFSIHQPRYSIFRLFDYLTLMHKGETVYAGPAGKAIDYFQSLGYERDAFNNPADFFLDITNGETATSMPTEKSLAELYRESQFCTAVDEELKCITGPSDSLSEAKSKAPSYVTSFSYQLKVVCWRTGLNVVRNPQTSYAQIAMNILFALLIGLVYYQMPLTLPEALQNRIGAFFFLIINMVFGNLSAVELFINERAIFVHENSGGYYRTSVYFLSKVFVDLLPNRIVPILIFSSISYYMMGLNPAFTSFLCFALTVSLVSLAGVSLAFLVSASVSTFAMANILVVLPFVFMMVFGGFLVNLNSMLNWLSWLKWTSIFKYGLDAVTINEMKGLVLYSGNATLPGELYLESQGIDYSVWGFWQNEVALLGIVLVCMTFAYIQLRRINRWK

[3] = biological target: T3, ABCG2 (Homo sapiens, UniProt Q9UNQ0); assay: flow cytometry efflux assay; assay type: cell-based; conditions: 5 µM substrate, 37 °C, with and without inhibitor
T3 construct: homodimer
T3 sequence (Q9UNQ0 1-655): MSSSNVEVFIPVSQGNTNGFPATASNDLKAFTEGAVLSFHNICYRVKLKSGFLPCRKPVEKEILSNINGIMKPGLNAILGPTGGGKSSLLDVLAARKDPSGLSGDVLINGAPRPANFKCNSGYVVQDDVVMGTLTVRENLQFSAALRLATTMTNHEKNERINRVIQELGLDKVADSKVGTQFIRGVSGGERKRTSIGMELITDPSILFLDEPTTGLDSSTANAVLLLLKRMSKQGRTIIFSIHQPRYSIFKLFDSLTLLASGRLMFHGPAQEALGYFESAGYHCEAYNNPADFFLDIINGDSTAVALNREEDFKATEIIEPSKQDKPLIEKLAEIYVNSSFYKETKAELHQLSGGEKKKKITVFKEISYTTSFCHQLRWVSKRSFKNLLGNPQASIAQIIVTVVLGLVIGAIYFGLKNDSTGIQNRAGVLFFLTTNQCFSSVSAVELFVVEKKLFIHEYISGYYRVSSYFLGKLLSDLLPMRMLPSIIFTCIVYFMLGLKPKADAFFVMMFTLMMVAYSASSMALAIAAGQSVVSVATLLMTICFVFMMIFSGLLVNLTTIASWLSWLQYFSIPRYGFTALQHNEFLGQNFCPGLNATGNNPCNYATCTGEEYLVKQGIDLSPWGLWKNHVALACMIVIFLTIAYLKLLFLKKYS

[4] = biological target: T4, Abcg2c (Danio rerio, UniProt A0A8M2B3F2); assay: flow cytometry efflux assay; assay type: cell-based; conditions: 5 µM substrate, 37 °C, with and without inhibitor
T4 construct: homodimer
T4 sequence (A0A8M2B3F2 1-640): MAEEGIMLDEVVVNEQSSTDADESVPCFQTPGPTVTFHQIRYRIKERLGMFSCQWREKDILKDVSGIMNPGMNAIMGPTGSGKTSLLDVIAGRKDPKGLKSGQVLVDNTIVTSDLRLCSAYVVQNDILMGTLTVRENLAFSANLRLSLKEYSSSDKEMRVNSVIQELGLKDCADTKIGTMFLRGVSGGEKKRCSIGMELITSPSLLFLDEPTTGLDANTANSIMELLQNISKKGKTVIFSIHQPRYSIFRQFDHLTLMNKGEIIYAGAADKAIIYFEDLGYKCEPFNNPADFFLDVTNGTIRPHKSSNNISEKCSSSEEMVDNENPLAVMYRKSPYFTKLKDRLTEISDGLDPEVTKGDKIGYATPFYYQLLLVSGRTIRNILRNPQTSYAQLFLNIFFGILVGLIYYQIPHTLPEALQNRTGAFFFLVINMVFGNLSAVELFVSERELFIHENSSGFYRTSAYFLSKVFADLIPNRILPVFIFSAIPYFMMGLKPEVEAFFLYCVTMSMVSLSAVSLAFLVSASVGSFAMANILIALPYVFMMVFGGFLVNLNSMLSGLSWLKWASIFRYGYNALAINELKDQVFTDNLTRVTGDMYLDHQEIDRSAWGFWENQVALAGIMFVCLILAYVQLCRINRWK

[5] = tested on: T5, Abcg2b; assay: cells; set-up: species or system HEK-293; CellTiter-Glo growth inhibition of transporter-transfected HEK-293 cells, luminescence; conditions: Homo sapiens, HEK293, 72 h; cells expressing zebrafish Abcg2b
T5 construct: HEK-293 HEK-293 stably expressing full-length FLAG-tagged zebrafish Abcg2b
Description: (§1) Trypsinized cells were plated at 5,000 cells/well in white opaque 96-well plates and allowed to adhere overnight. Drugs were then added, with each concentration tested in triplicate, and cells were incubated for 72 h. Cell growth was assessed using the CellTiter-Glo (Promega, Madison, WI) reagent, according to the manufacturer’s instructions. Luminescence was measured on a Tecan Infinite M200 Pro microplate reader (Tecan Group, Morrisville, NC, RRID:SCR_019033). […] Relative resistance (RR) values are the ratio of the GI50 values of the transporter transfected versus the empty vector-transfected HEK-293 cells. HEK-293 cells (ATCC, Manassas, VA, RRID:CVCL_0045) were transfected with empty pcDNA3.1 vector or with vector containing full-length abcg2a (NM_001042775), abcg2b (NM_001039066), abcg2c (XM_005156523) or abcg2d (NM_001042772) (all from Genscript, Piscataway, NJ), flanked by a C-terminal FLAG tag sequence. The R-5 cell line was generated as previously described from HEK-293 cells transfected with full-length ABCG2 [18]. Transfected cells were cultured at 37 °C and at 5% CO2 in EMEM (Quality Biological, Gaithersburg, MD) supplemented with 10% fetal calf serum, penicillin/streptomycin (Quality Biological) and 2 mg/ml G418 (Mediatech, Manassas, VA). To determine if zebrafish Abcg2a-d were able to confer resistance to known cytotoxic substrates of ABCG2, cytotoxicity assays were performed and quantified by the drug concentration that produces 50% cell growth inhibition (GI50). Among the zebrafish Abcg2 homologs, Abcg2a conferred the highest level of resistance to MLN7243 (a ubiquitin activating enzyme inhibitor), MLN4924 (NEDD8 activating enzyme inhibitor), and CUDC-101 (histone deacetylase and receptor tyrosine kinase inhibitor) (Fig. 2, Additional file 5: Table S1). Abcg2d conferred the least resistance to THZ 531 (CDK12/13 inhibitor), CUDC-101, and gedatolisib (an inhibitor of phosphatidylinositol-3-kinase (PI3K) and mammalian target of rapamycin (mTOR)). […] Abcg2b and Abcg2c often conferred similar levels of resistance to the same substates, as evidenced by results with MLN7243, MLN4924, THZ 531, CUDC-101 and gedatolisib.

[6] = tested on: T6, ABCG2; assay: cells; set-up: species or system HEK-293; CellTiter-Glo growth inhibition of transporter-transfected HEK-293 cells, luminescence; conditions: HEK293, 72 h; cells expressing human ABCG2
T6 construct: HEK-293 R-5 HEK-293 stably expressing full-length human ABCG2 (R-5)
Description: as §1

[7] = tested on: T7, Abcg2d; assay: cells; set-up: species or system HEK-293; CellTiter-Glo growth inhibition of transporter-transfected HEK-293 cells, luminescence; conditions: Homo sapiens, HEK293, 72 h; cells expressing zebrafish Abcg2d
T7 construct: HEK-293 HEK-293 stably expressing full-length FLAG-tagged zebrafish Abcg2d
Description: as §1

[8] = tested on: T8, Empty vector; assay: cells; set-up: species or system HEK-293; CellTiter-Glo growth inhibition of transporter-transfected HEK-293 cells, luminescence; conditions: Homo sapiens, HEK293, 72 h
T8 construct: HEK-293 HEK-293 stably transfected with empty pcDNA3.1
Description: as §1

[9] = tested on: T9, Abcg2a; assay: cells; set-up: species or system HEK-293; CellTiter-Glo growth inhibition of transporter-transfected HEK-293 cells, luminescence; conditions: Homo sapiens, HEK293, 72 h; cells expressing zebrafish Abcg2a
T9 construct: HEK-293 HEK-293 stably expressing full-length FLAG-tagged zebrafish Abcg2a
Description: as §1

[10] = tested on: T10, Abcg2c; assay: cells; set-up: species or system HEK-293; CellTiter-Glo growth inhibition of transporter-transfected HEK-293 cells, luminescence; conditions: Homo sapiens, HEK293, 72 h; cells expressing zebrafish Abcg2c
T10 construct: HEK-293 HEK-293 stably expressing full-length FLAG-tagged zebrafish Abcg2c
Description: as §1

Structure (SMILES)	flow cytometry efflux assay [1]	flow cytometry efflux assay [2]	flow cytometry efflux assay [3]	flow cytometry efflux assay [4]	GI50 [5]	GI50 [6]	GI50 [7]	GI50 [8]	GI50 [9]	GI50 [10]
C=Cc1c(C)c2cc3nc(c4c5[nH]c(cc6nc(cc1[nH]2)C(C)=C6CC)c(C)c5C(=O)[C@@H]4C(=O)OC)[C@@H](CCC(=O)O)[C@@H]3C [pheophorbide a]	to a greater extent with pheophorbide a, indicating Abcg2a can efflux both substrates	Pheophorbide a also appears to be a substrate for Abcg2b and Abcg2c	ABCG2-expressing cells exhibit an increase in intracellular fluorescence	Pheophorbide a also appears to be a substrate for Abcg2b and Abcg2c	–	–	–	–	–	–
CN(C)C1CCN(C(=O)c2ccc(NC(=O)Nc3ccc(-c4nc(N5CCOCC5)nc(N5CCOCC5)n4)cc3)cc2)CC1 [Gedatolicib, gedatolisib]	–	–	–	–	4060 ± 1500 nM	3840 ± 1500 nM	820 ± 500 nM	200 ± 10 nM	1390 ± 190 nM	3260 ± 490 nM
NS(=O)(=O)OC[C@@H]1C[C@@H](n2ccc3c(N[C@H]4CCc5ccccc54)ncnc32)C[C@@H]1O [MLN 4924]	–	–	–	–	520 ± 52 nM	7320 ± 1700 nM	353 ± 190 nM	420 ± 90 nM	2440 ± 170 nM	487 ± 40 nM
O=C1c2c(O)ccc(O)c2C(=O)c2c(NCCNCCO)ccc(NCCNCCO)c21 [mitoxantrone]	rightward inhibited peak shift for Abcg2a with mitoxantrone	–	–	–	–	–	–	–	–	–
C#Cc1cccc(Nc2ncnc3cc(OC)c(OCCCCCCC(=O)NO)cc23)c1 [CUDC-101]	–	–	–	–	2090 ± 190 nM	11300 ± 2000 nM	1040 ± 260 nM	780 ± 100 nM	5420 ± 1400 nM	1690 ± 290 nM
Cc1nc(Nc2[nH]nc3c2CN(C(=O)N[C@H](CN(C)C)c2ccccc2)C3(C)C)c2sccc2n1 [PF-3758309]	–	–	–	–	413 ± 150 nM	2360 ± 540 nM	1540 ± 650 nM	68 ± 30 nM	1260 ± 530 nM	1970 ± 710 nM
CN(C)C/C=C/C(=O)Nc1ccc(C(=O)N2CCC[C@@H](Nc3ncc(Cl)c(-c4c[nH]c5ccccc45)n3)C2)cc1 [THZ 531]	–	–	–	–	10500 nM	65900 ± 3700 nM	3990 ± 240 nM	1290 ± 140 nM	18300 ± 3600 nM	11400 ± 1000 nM
NS(=O)(=O)OC[C@H]1C[C@@H](Nc2ccnc3cc(-c4cccc(SC(F)(F)F)c4)nn23)[C@H](O)[C@@H]1O [MLN 7243]	–	–	–	–	151 ± 51 nM	15400 ± 220 nM	179 ± 23 nM	69 ± 5 nM	–	200 ± 20 nM

From article PMC10941402, “Abcg2a is the functional homolog of human ABCG2 expressed at the zebrafish blood–brain barrier” (Fluids and Barriers of the CNS, 2024)
